Experimental data as given in US4033960A, “2-Mercaptoquinoxaline-di-N-oxide products and a method for their preparation” (Bayer Aktiengesellschaft, priority 1973, dated 1977).
≈ marks a conversion by molar mass, not a printed value.

What was measured:
Assay in all cases: Minimum inhibitory concentration by the plate test (agar)
Assay type in all cases: cell-based
Escherichia coli A 261 = conditions: 0-10 colonies formed, pH 7.4; for Minimum inhibitory concentration: per ml of nutrient medium, 5,000 cells/10 ml
Description: (§1) […] The bacteria to be tested are cast, together with the nutrient medium and the test substance distributed in the agar, into a Petri dish. The number of bacterial cells is 5,000/10 ml of nutrient medium. The minimum inhibitory concentration is the concentration at which 0-10 colonies are formed.

[1] = system: Staphylococcus aureus 133; conditions: per ml of nutrient medium, 5,000 cells/10 ml, 0-10 colonies formed, pH 7.4
Description: as §1

Escherichia coli C 165 = conditions: 0-10 colonies formed, pH 7.4; for Minimum inhibitory concentration: per ml of nutrient medium, 5,000 cells/10 ml
Description: as §1

Proteus vulgaris 1017 = conditions: per ml of nutrient medium, 5,000 cells/10 ml, 0-10 colonies formed, pH 7.4
Description: as §1

Klebsiella 8085 = conditions: per ml of nutrient medium, 5,000 cells/10 ml, 0-10 colonies formed, pH 7.4
Description: as §1

Compound	Minimum inhibitory concentration (Escherichia coli A 261) [µg/mL]	Minimum inhibitory concentration [1] [µg/mL]	Minimum inhibitory concentration (Escherichia coli C 165) [µg/mL]	Minimum inhibitory concentration (Proteus vulgaris 1017) [µg/mL]	Minimum inhibitory concentration (Klebsiella 8085) [µg/mL]	MIC (Escherichia coli A 261; A261, per ml of nutrient medium, 5,000 cells/10 ml) [µg/mL]	MIC (Klebsiella 8085) [µg/mL]	MIC [1] [µg/mL]	MIC (Escherichia coli C 165; C165, per ml of nutrient medium, 5,000 cells/10 ml) [µg/mL]	MIC (Proteus vulgaris 1017) [µg/mL]
6(7)-methoxy-2-mercapto-3-methyl-quinoxaline-di-N-oxide [Example 7]	128	128	64 to 128	128	–	–	–	–	–	–
6(7)-fluoro-2-mercapto-3-methyl-quinoxaline-di-N-oxide [Example 3]	128	128	64 to 128	128	–	–	–	–	–	–
6(7)-chloro-2-mercapto-3-methyl-quinoxaline-di-N-oxide [Example 2]	128	128	128	64 to 128	128	–	–	–	–	–
Cc1c(S)[n+]([O-])c2ccccc2[n+]1[O-] [Example 1, 2-Mercapto-3-methylquinoxaline-di-N-oxide]	–	–	–	–	–	50 to 100 (≈ 240 to 480 µM)	10 (≈ 48 µM)	100 (≈ 480 µM)	50 to 100 (≈ 240 to 480 µM)	100 (≈ 480 µM)
6(7)-bromo-2-mercapto-3-methyl-quinoxaline-di-N-oxide [Example 4]	100	100	100	–	–	–	–	–	–	–
